Test results: patent publication US20180036270A1, “A METHOD OF PROTECTING AGAINST CARBONYL STRESS INDUCED ISCHEMIA-REPERFUSION INJURY IN THE DIABETIC BRAIN VIA ADMINISTRATION OF N-ACETYLCYSTEINE” (Board of Supervisors of Louisiana State University and …, priority 2015, published 2018)

What was measured:
[1] = tested on: Akita diabetic mouse; assay: Akita model: platelet-neutrophil aggregates and thrombosis onset and cessation; format: in vivo; details: Akita diabetic mice, insulin treatment
Source text: FIGS. 28A-28C are three bar graphs showing percent platelet-neutrophil aggregate formation (FIG. 28A), time to onset of thrombosis (FIG. 28B), and time to cessation of thrombosis (FIG. 28C) for Akita non-diabetic mouse, Akita diabetic mouse, Akita diabetic mouse plus insulin, and Akita diabetic mouse plus insulin and NAC; and
Akita model: like STZ model, shown in FIGS. 28A-28C percent platelet-neutrophil aggregate formation is increased, and time to onset and cessation in thrombosis are accelerated in arterioles and venules. Again this reiterates that the effects of diabetes may be “global” rather than confined to one type/cause of diabetes. […] The data evidences that glucose control, which is the current treatment, is not completely effective and that co-treatment with NAC is very effective. […] It appears that insulin and NAC are additive/synergistic.

[2] = tested on: human brain microvascular endothelial cell; assay: Endothelial barrier permeability by transendothelial electrical resistance; format: cell-based; details: MG alone
Procedure: Moreover, treatment with 100 μM MG in rat thoracic aortic rings for 24 h decreases acetylcholine-induced vascular relaxation via a reduction in p-eNOS (Ser1177) and p-AMPKα (Thr172). MG can reduce endothelial angiogenesis through RAGE-mediated, ONOO(^−)-dependent and autophagy-induced VEGFR2 degradation. […] This is exacerbated by GSH synthesis inhibition and prevented by NAC. The enhanced MG concentration in diabetic patients can also directly contribute to the platelet dysfunction associated with diabetes. Platelet dysfunction is characterized by hyperaggregability and reduced thrombus stability via potentiating thrombin-induced platelet aggregation and dense granule release, but inhibiting platelet spreading on fibronectin and collagen. Given that endothelial dysfunction and enhanced platelet activation could promote stroke, these studies indicate that MG can contribute to ischemic brain injury.

[3] = tested on: rat thoracic aortic rings; details: 100 μM MG for 24 h; cited from earlier work
[4] = tested on: brain GSH and cysteine contents; assay: Brain GSH and cysteine by HPLC; format: in vivo, mouse; details: vehicle mice given BSO, inhibition of GSH synthesis
Source text: Four-week-old male C57BL/6J mice, weighing 18-20 g, were purchased from Jackson Laboratory. These mice were maintained at the Animal Facility of the Louisiana State University Health Sciences Center—Shreveport. Animal care and use in the experiments follow the guidelines in the Guide for the Care and Use of Laboratory Animals, published by the US National Institutes of Health. Following adaptation for 1 week, the mice were divided randomly into 4 groups: non-treated sham operation group (NT-sham group, n=6), non-treated I/R group (NT-I/R group, n=5), vehicle I/R group (Veh-I/R group, n=24), and streptozotocin I/R group (STZ-I/R group, n=19). […] On day 7, mice whose plasma glucose was more than 300 mg/dl were deemed to be diabetic. From diabetes onset at week 1, a group of diabetic mice were given 0.2 mM NAC in the drinking water for 3 weeks (n=3; a total of 4 weeks diabetes, 3 weeks NAC) or 1 week (n=9; a total of 2 weeks diabetes, 1 week NAC). Veh-I/R mice were injected with citrate buffer for consecutive 5 days, and a group of Veh-treated mice were given 0.2 mM NAC for 2 weeks in the drinking water before the ischemia operation (Veh+NAC group, n=8). Another Veh-treated mice were injected (intraperitoneally, 12 hr interval) with 0.5M BSO 24 h before the ischemia operation and during the 24 h reperfusion period (Veh+BSO group, n=10). All mice were 9 weeks old at sacrifice.
Tissue contents of GSH, cysteine and γGC were determined by high-performance liquid chromatography (HPLC). […] Separation of GSH, cysteine and γGC derivatives whose peaks were detected at 365 nm wavelength was performed on a 250×4.6-mm Alltech Lichrosorb NH2 10 μm anion-exchange column. GSH, cysteine and γGC contents were quantified by comparison to standards derivatized in the same manner. Protein pellets were dissolved in 1 M NaOH for protein quantitation and GSH, cysteine and γGC concentrations were expressed as nanomoles per mg protein.

[5] = biological target: T1, glutamate cysteine ligase (GCL) (Homo sapiens, UniProt P48506); details: after brain ischemia/reperfusion, in the presence of BSO; cited from earlier work
T1 sequence (P48506 1-637): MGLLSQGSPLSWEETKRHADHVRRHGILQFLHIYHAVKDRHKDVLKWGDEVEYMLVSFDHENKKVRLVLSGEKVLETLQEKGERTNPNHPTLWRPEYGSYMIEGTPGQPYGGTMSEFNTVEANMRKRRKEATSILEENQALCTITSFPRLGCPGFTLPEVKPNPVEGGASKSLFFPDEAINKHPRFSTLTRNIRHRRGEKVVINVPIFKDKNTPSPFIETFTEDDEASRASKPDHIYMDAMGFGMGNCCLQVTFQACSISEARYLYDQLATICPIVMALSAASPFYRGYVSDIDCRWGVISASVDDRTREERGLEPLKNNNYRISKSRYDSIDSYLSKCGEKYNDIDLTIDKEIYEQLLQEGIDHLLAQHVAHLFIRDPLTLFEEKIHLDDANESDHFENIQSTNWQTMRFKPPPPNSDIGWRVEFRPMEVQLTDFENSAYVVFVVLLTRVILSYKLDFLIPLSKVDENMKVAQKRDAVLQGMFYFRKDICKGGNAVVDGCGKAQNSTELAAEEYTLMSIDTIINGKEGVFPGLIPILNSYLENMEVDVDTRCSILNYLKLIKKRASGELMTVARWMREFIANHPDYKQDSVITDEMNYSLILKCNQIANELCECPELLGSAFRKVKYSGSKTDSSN
T1 sequence (P48507 1-274 partner): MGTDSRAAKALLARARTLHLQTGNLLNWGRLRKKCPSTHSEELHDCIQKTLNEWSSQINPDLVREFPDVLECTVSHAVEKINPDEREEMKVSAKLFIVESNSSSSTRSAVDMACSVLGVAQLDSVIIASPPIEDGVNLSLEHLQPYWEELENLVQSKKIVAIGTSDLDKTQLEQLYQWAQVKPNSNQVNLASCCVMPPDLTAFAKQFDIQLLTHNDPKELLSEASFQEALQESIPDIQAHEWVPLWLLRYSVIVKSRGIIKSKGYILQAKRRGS

Compound: insulin
- platelet-neutrophil aggregate formation [1]: reversal
- thrombosis cessation time (time to complete occlusion of the vessel) [1]: did not correct
- thrombosis onset time in arterioles [1]: reversal
- thrombosis onset time in venules [1]: did not correct

Compound: CC(=O)C=O [MG, Methylglyoxal]
- endothelial barrier permeability (loss of transendothelial electrical resistance) [2]: increase human brain microvascular endothelial cell barrier permeability
- acetylcholine-induced vascular relaxation [3]: decreases

Compound: CCCCS(=N)(=O)CCC(N)C(=O)O [BSO, L-buthionine sulfoximine]
- brain cysteine levels [4]: higher free cysteine levels
- brain infarction and edema [5]: exacerbated further
